Experimental findings from patent US20040156869A1, “2-substituted quinazolin-4-ylamine analogues” (Neurogen Corporation, priority 2002, published 2004) are described below.

The test deals with human capsaicin receptor (VR1) (Homo sapiens, UniProt Q8NER1). Put plainly: Capsaicin receptor binding assay ([3H]RTX competition, VR1-transfected HEK293 membranes).
Sequence of human capsaicin receptor (VR1) (Q8NER1 whole entry): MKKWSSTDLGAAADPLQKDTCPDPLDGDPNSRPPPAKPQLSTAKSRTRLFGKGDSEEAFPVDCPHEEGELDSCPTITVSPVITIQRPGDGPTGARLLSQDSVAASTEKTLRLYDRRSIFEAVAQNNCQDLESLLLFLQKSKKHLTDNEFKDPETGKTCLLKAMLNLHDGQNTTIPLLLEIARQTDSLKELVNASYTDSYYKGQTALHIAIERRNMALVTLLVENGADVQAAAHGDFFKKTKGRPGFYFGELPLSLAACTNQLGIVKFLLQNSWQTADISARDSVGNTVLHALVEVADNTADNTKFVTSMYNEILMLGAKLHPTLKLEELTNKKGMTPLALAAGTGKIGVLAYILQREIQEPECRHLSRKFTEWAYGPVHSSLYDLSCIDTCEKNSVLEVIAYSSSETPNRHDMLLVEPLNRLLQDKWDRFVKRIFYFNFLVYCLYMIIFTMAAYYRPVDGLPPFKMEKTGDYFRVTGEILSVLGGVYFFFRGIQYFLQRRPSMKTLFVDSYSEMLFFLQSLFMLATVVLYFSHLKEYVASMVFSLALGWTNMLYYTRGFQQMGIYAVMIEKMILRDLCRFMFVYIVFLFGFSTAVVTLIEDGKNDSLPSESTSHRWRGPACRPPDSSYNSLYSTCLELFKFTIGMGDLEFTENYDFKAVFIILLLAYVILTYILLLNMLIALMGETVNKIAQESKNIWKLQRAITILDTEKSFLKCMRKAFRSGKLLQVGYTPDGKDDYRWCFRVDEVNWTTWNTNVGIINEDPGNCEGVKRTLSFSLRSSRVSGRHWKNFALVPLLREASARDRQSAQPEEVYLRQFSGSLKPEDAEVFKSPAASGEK
The compound `CC(C)c1ccc(Nc2nc(CN3CCO[C@@H](C)C3)nc3cc(-c4ncccc4Cl)ccc23)cc1` [Compound 648, (S)-[7-(3-Chloro-pyridin-2-yl)-2-(2-methyl-morpholin-4-ylmethyl)-quinazolin-4-yl]-(4-isopropyl-phenyl)-amine] came in with a Ki of less than 1 µM.
In the case of `C[C@H]1CN(Cc2nc(Nc3ccc(C(C)(C)C)cc3)c3ccc(-c4ncccc4Cl)cc3n2)C[C@H](C)O1` [Compound 649, (S,S)-(4-tert-Butyl-phenyl)-[7-(3-chloro-pyridin-2-yl)-2-(2,6-dimethyl-morpholin-4-ylmethyl)-quinazolin-4-yl]-amine], the Ki is less than 1 µM.
As for `CC(C)c1ccc(Nc2nc(CN3C[C@H](C)O[C@@H](C)C3)nc3cc(-c4ncccc4Cl)ccc23)cc1` [Compound 650, (S,S)-[7-(3-Chloro-pyridin-2-yl)-2-(2,6-dimethyl-morpholin-4-ylmethyl)-quinazolin-4-yl]-(4-isopropyl-phenyl)-amine], the figure is less than 1 µM.
On to `CCc1ccc(Nc2nc(CN3C[C@H](C)O[C@@H](C)C3)nc3cc(-c4ncccc4Cl)ccc23)cc1` [Compound 651, (S,S)-[7-(3-Chloro-pyridin-2-yl)-2-(2,6-dimethyl-morpholin-4-ylmethyl)-quinazolin-4-yl]-(4-ethyl-phenyl)-amine], for which the Ki is less than 1 µM.
The compound `CC(C)c1ccc(Nc2nc(CN3C[C@@H](C)O[C@H](C)C3)nc3cc(-c4ncccc4C(F)(F)F)ccc23)cc1` [Compound 652, (R,R)-[2-(2,6-Dimethyl-morpholin-4-ylmethyl)-7-(3-trifluoromethyl-pyridin-2-yl)-quinazolin-4-yl]-(4-isopropyl-phenyl)-amine] gave a Ki of less than 1 µM.
As for `C[C@@H]1CN(Cc2nc(Nc3ccc(Cl)cc3)c3ccc(-c4ncccc4C(F)(F)F)cc3n2)C[C@@H](C)O1` [Compound 654, (R,R)-(4-Chloro-phenyl)-[2-(2,6-dimethyl-morpholin-4-ylmethyl)-7-(3-trifluoromethyl-pyridin-2-yl)-quinazolin-4-yl]-amine], the figure is less than 1 µM; as for `CC(C)S(=O)(=O)c1ccc(Nc2nc(CN3C[C@@H](C)O[C@H](C)C3)nc3cc(-c4ncccc4C(F)(F)F)ccc23)cc1` [Compound 655, (R,R)-[2-(2,6-Dimethyl-morpholin-4-ylmethyl)-7-(3-trifluoromethyl-pyridin-2-yl)-quinazolin-4-yl]-[4-(propane-2-sulfonyl)-phenyl]-amine], less than 1 µM; as for `O=C(OCc1ccccc1)N1CCC[C@H]1c1nc(Nc2ccc(C(F)(F)F)cc2)c2ccc(-c3ncccc3C(F)(F)F)cc2n1` [Compound 656, (S)-2-[4-(4-Trifluoromethyl-phenylamino)-7-(3-trifluoromethyl-pyridin-2-yl)-quinazolin-2-yl]-pyrrolidine-1-carboxylic acid benzyl ester], less than 1 µM.
In the case of `C[C@@H]1CN(Cc2nc(Nc3ccc(C(F)(F)F)cc3)c3ncc(-c4ncccc4C(F)(F)F)cc3n2)C[C@@H](C)O1` [Compound 657, (R,R)-[2-(2,6-Dimethyl-morpholin-4-ylmethyl)-7-(3-trifluoromethyl-pyridin-2-yl)-pyrido[3,2-d]pyrimidin-4-yl]-(4-trifluoromethyl-phenyl)-amine], the Ki was less than 1 µM.
In the case of `C[C@H]1CN(Cc2nc(Nc3ccc(C(F)(F)F)cc3)c3ncc(-c4ncccc4C(F)(F)F)cc3n2)C[C@H](C)O1` [Compound 658, (S,S)-[2-(2,6-Dimethyl-morpholin-4-ylmethyl)-7-(3-trifluoromethyl-pyridin-2-yl)-pyrido[3,2-d]pyrimidin-4-yl]-(4-trifluoromethyl-phenyl)-amine], the Ki was less than 1 µM.
In the case of `FC(F)(F)c1ccc(Nc2nc(CN3CCCCCC3)nc3cc(-c4ncccc4C(F)(F)F)cnc23)cc1` [Compound 659, [2-Azepan-1-ylmethyl-7-(3-trifluoromethyl-pyridin-2-yl)-pyrido[3,2-d]pyrimidin-4-yl]-(4-trifluoromethyl-phenyl)-amine] it was less than 1 µM.
As for `FC(F)(F)c1ccc(Nc2nc(CN3CCSCC3)nc3cc(-c4ncccc4C(F)(F)F)cnc23)cc1` [Compound 660, [2-Thiomorpholin-4-ylmethyl-7-(3-trifluoromethyl-pyridin-2-yl)-pyrido[3,2-d]pyrimidin-4-yl]-(4-trifluoromethyl-phenyl)-amine], the figure is less than 1 µM; as for `CC1(C)CCCN(Cc2nc(Nc3ccc(C(F)(F)F)cc3)c3ncc(-c4ncccc4C(F)(F)F)cc3n2)C1` [Compound 661, [2-(3,3-Dimethyl-piperidin-1-ylmethyl)-7-(3-trifluoromethyl-pyridin-2-yl)-pyrido[3,2-d]pyrimidin-4-yl]-(4-trifluoromethyl-phenyl)-amine], less than 1 µM.
In the case of `C=CCN(C)Cc1nc(Nc2ccc(C(F)(F)F)cc2)c2ncc(-c3ncccc3C(F)(F)F)cc2n1` [Compound 662, [2-[(Allyl-methyl-amino)-methyl]-7-(3-trifluoromethyl-pyridin-2-yl)-pyrido[3,2-d]pyrimidin-4-yl]-(4-trifluoromethyl-phenyl)-amine] it was less than 1 µM.
`C=CCN(CC=C)Cc1nc(Nc2ccc(C(F)(F)F)cc2)c2ncc(-c3ncccc3C(F)(F)F)cc2n1` [Compound 663, [2-Diallylaminomethyl-7-(3-trifluoromethyl-pyridin-2-yl)-pyrido[3,2-d]pyrimidin-4-yl]-(4-trifluoromethyl-phenyl)-amine] returned a Ki of less than 1 µM.
As for `CCCN(CCC)Cc1nc(Nc2ccc(C(F)(F)F)cc2)c2ncc(-c3ncccc3C(F)(F)F)cc2n1` [Compound 664, [2-Dipropylaminomethyl-7-(3-trifluoromethyl-pyridin-2-yl)-pyrido[3,2-d]pyrimidin-4-yl]-(4-trifluoromethyl-phenyl)-amine], the figure is less than 1 µM; as for `CCCN(Cc1nc(Nc2ccc(C(F)(F)F)cc2)c2ncc(-c3ncccc3C(F)(F)F)cc2n1)CC1CC1` [Compound 665, [2-[(Cyclopropylmethyl-propyl-amino)-methyl]-7-(3-trifluoromethyl-pyridin-2-yl)-pyrido[3,2-d]pyrimidin-4-yl]-(4-trifluoromethyl-phenyl)-amine], less than 1 µM; as for `CCCCN(CCCC)Cc1nc(Nc2ccc(C(F)(F)F)cc2)c2ncc(-c3ncccc3C(F)(F)F)cc2n1` [Compound 666, [2-Dibutylaminomethyl-7-(3-trifluonmethyl-pyridin-2-yl)-pyrido[3,2-d]pyrimidin-4-yl]-(4-trifluoromethyl-phenyl)-amine], less than 1 µM.
Take `C=C(C)CN(CC)Cc1nc(Nc2ccc(C(F)(F)F)cc2)c2ncc(-c3ncccc3C(F)(F)F)cc2n1` [Compound 667, [2-{[Ethyl-(2-methyl-allyl)-amino]-methyl}-7-(3-trifluoromethyl-pyridin-2-yl)-pyrido[3,2-d]pyrimidin-4-yl]-(4-trifluoromethyl-phenyl)-amine]: the Ki is less than 1 µM.
In the case of `C[C@@H]1C[C@H](C)CN(Cc2nc(Nc3ccc(C(F)(F)F)cc3)c3ncc(-c4ncccc4C(F)(F)F)cc3n2)C1` [Compound 668, [2-(3,5-Dimethyl-piperidin-1-ylmethyl)-7-(3-trifluoromethyl-pyridin-2-yl)-pyrido[3,2-d]pyrimidin-4-yl]-(4-trifluoromethyl-phenyl)-amine (cis)] it was less than 1 µM; in that of `CC1CCCN(Cc2nc(Nc3ccc(C(F)(F)F)cc3)c3ncc(-c4ncccc4C(F)(F)F)cc3n2)C1` (centres unmarked) [Compound 669, [2-(3-Methyl-piperidin-1-ylmethyl)-7-(3-trifluoromethyl-pyridin-2-yl)-pyrido[3,2-d]pyrimidin-4-yl]-(4-trifluoromethyl-phenyl)-amine], less than 1 µM; in that of `COCCN(CCOC)Cc1nc(Nc2ccc(C(F)(F)F)cc2)c2ncc(-c3ncccc3C(F)(F)F)cc2n1` [Compound 670, [2-{[Bis-(2-methoxy-ethyl)-amino]-methyl}-7-(3-trifluoromethyl-pyridin-2-yl)-pyrido[3,2-d]pyrimidin-4-yl]-(4-trifluoromethyl-phenyl)-amine], less than 1 µM.
`FC(F)(F)c1ccc(Nc2nc(CN3C=NCCC3)nc3cc(-c4ncccc4C(F)(F)F)ccc23)cc1` [Compound 671, [2-(5,6-Dihydro-4H-pyrimidin-1-ylmethyl)-7-(3-trifluoromethyl-pyridin-2-yl)-quinazolin-4-yl]-(4-trifluoromethyl-phenyl)-amine]: the Ki is less than 1 µM.
For the compound `C[C@@H]1CN(Cc2nc(Nc3ccc(C(C)(C)C)cc3)c3ccc(-c4ncccc4Cl)cc3n2)CCO1` [Compound 672, (R)-(4-tert-Butyl-phenyl)-[7-(3-chloro-pyridin-2-yl)-2-(2-methyl-morpholin-4-ylmethyl)-quinazolin-4-yl]-amine], the Ki was less than 1 µM.
`CC(C)c1ccc(Nc2nc(CN3CCO[C@H](C)C3)nc3cc(-c4ncccc4Cl)ccc23)cc1` [Compound 673, (R)-[7-(3-Chloro-pyridin-2-yl)-2-(2-methyl-morpholin-4-ylmethyl)-quinazolin-4-yl]-(4-isopropyl-phenyl)-amine] had a Ki of less than 1 µM.
In the case of `C[C@@H]1CN(Cc2nc(Nc3ccc(C(F)(F)F)cc3)c3ccc(-c4ncccc4Cl)cc3n2)CCO1` [Compound 674, (R)-[7-(3-Chloro-pyridin-2-yl)-2-(2-methyl-morpholin-4-ylmethyl)-quinazolin-4-yl]-(4-trifluoromethyl-phenyl)-amine] it was less than 1 µM; in that of `C[C@@H]1CN(Cc2nc(Nc3ccc(C(C)(C)C)cc3)c3ccc(-c4ccncc4)cc3n2)C[C@H](C)O1` [Compound 675, (4-tert-Butyl-phenyl)-[2-(2,6-dimethyl-morpholin-4-ylmethyl)-7-pyridin-4-yl-quinazolin-4-yl]-amine (cis)], less than 1 µM; in that of `C[C@@H]1CN(Cc2nc(Nc3ccc(C(C)(C)C)cc3)c3ccc(-c4cccnc4)cc3n2)C[C@H](C)O1` [Compound 676, (4-tert-Butyl-phenyl)-[2-(2,6-dimethyl-morpholin-4-ylmethyl)-7-pyridin-3-yl-quinazolin-4-yl]-amine (cis)], less than 1 µM.
`C[C@@H]1CN(Cc2nc(Nc3ccc(C(C)(C)C)cc3)c3ccc(-c4cncnc4)cc3n2)C[C@H](C)O1` [Compound 677, (4-tert-Butyl-phenyl)-[2-(2,6-dimethyl-morpholin-4-ylmethyl)-7-pyrimidin-5-yl-quinazolin-4-yl]-amine (cis)]: the inhibitory constant (Ki) is less than 1 µM.

Usually Ki stands for a dissociation constant, usually derived from enzyme kinetics or from competition with a known ligand.
